Counter-ions that a name gives are not always drawn.
How the values were obtained:
Assay type in all cases: biochemical
Human recombinant MMP-9 [1] = target: T1, Human recombinant MMP-9 (Homo sapiens, UniProt P14780); assay: In vitro MMP inhibition, IC50 determination (fluorogenic substrate I)
T1 construct: made in house; host or cells: MMP-9-transfected HT1080 cells (spent media)
Outline: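 MMP-9 proenzyme purified from transfected HT1080 cell media, activated with APMA or trypsin. Compound dilutions in pH 7.5 Tris/NaCl/CaCl2 buffer with 0.05% polyoxyethylene 23 lauryl ether, incubated at room temperature with 4 μM MCA/Dpa substrate I. IC50 from fluorescence loss (ex 328, em 415 nm) versus inhibitor concentration.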

Human recombinant MMP-9 [2] = target: T1, Human recombinant MMP-9; assay: In vitro MMP inhibition, Ki determination (fluorogenic substrate II)
Experimental: (§1) Several hydroxamates and salts thereof were analyzed in in vitro assays to determine their ability to inhibit the MMP cleavage of peptide substrates. Inhibition (Ki) and IC50 constants were calculated from the assayed hydroxamate-MMP interactions.
(§2) Human recombinant MMP-1, MMP-2, MMP-9, MMP-13, and MMP-14 were used in this assay. All enzymes were prepared in Assignee's laboratories following usual laboratory procedures. Protocols for the preparation and use of these enzymes are available in the scientific literature. See, e.g., Enzyme Nomenclature (Academic Press, San Diego, Calif., 1992) (and the citations therein). See also, Frije et al., J. Biol. Chem., 26(24), 16766-73 (1994).
The MMP-9 proenzyme was purified by gelatin Sepharose chromatography from spent media of MMP-9-transfected HT1080 cells provided by Dr. Howard Welgus of Washington University (St. Louis, Mo.).
(§3) All MMPs were activated using 4-aminophenylmercuric acetate (“APMA”, Sigma Chemical, St. Louis, Mo.) or trypsin. MMP-9 also was activated using human recombinant MMP-3 (purified in Assignee's laboratory following standard cloning and purification techniques).
(§4) Two fluorogenic, methoxycoumarin-containing polypeptide substrates were used in the MMP inhibition assays:
(§5) MCA-ArgProLeuGlyLeuDpaAlaArgGluArgNH2 (II)
(§6) Here, “Dpa” is 3-(2,4-dinitrophenyl)-L-2,3-diaminopropionyl group, and “MCA” is 7-methoxycoumarin-4-yl acetyl. Substrate (I) was purchased from Baychem (Redwood City, Calif.), and substrate II was prepared Assignee's laboratory. Substrate I was used in the IC50 determination assays, while substrate II was used in the Ki determination assays. In the absence of MMP inhibitory activity, either substrate is cleaved at the Gly-Leu peptide bond. This cleavage separates the highly fluorogenic peptide from the 2,4-dinitrophenyl quencher, thus resulting in increase of fluorescent intensity.
(§7) The stock solutions of the assayed hydroxamates (or salts thereof) were prepared in 1% dimethyl sulfoxide (DMSO). These stock solutions were diluted in Buffer A (100 mM Tris-HCl, 100 mM NaCl, 10 mM CaCl2, 0.05% polyoxyethylene 23 lauryl ether, pH 7.5) to obtain solutions with different hydroxamate concentrations, i.e., assay solutions with different concentrations of the assayed MMP inhibitory compound. The experiment controls contained the same amount of Buffer A/DMSO as the assayed sample, but contained no hydroxamate (or salt thereof).
(§8) The assays from which the Ki determinations were made were performed as follows. The assayed hydroxamate samples were incubated in separate wells of untreated white polystyrene plates (Nunc Nalgene International, Rochester, N.Y.), and analyzed on a Tecan SpectraFlour Plus plate reader. The excitation wavelength was 330 nm, and the emission wavelength—420 nm. All samples (assayed hydroxamates and controls) were incubated in separate plate wells at room temperature for 1 hr in the presence of 4 μM of MMP substrate (II). In the absence of MMP inhibitory activity, substrate II was cleaved at the Gly-Leu bond resulting in an increase of relative fluorescence. Inhibition was observed as a reduced rate of this increase in relative fluorescence. The various hydroxamates were analyzed using a single low enzyme concentration with a single substrate concentration fixed at or below the Km. This protocol is a modification of method by Knight et al., FEBS Lett., 296(3), 263-266 (1992). Apparent inhibitory constants were determined by non-linear regression of reaction velocity as a function of inhibitor and enzyme concentration using Morrison's equation, as described by Kuzmic, Anal. Biochem. 286, 45-50 (2000). Modifications were made in the non-linear regression method to allow a common control reaction rate and effective enzyme concentration to be shared between all dose-response relationships on a given assay plate. […]

Human recombinant MMP-13 = target: T2, Human recombinant MMP-13 (Homo sapiens, UniProt P45452); assay: In vitro MMP inhibition, IC50 determination (fluorogenic substrate I)
T2 construct: made in house; host or cells: baculovirus / insect cells
Outline: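 Fluorescence at 415 nm (excitation 328 nm) reports Gly-Leu cleavage of 4 μM quenched methoxycoumarin peptide substrate I. Human recombinant MMP-13, activated by trypsin or APMA, was incubated at room temperature with varied inhibitor concentrations in pH 7.5 Tris/NaCl/CaCl2 buffer; IC50 derived from reduced fluorescence.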

Human recombinant MMP-1 = target: T3, Human recombinant MMP-1 (Homo sapiens, UniProt P03956); assay: In vitro MMP inhibition, Ki determination (fluorogenic substrate II)
T3 construct: made in house; host or cells: MMP-1-transfected HT-1080 cells (spent media)
T3 sequence (P03956 100-469): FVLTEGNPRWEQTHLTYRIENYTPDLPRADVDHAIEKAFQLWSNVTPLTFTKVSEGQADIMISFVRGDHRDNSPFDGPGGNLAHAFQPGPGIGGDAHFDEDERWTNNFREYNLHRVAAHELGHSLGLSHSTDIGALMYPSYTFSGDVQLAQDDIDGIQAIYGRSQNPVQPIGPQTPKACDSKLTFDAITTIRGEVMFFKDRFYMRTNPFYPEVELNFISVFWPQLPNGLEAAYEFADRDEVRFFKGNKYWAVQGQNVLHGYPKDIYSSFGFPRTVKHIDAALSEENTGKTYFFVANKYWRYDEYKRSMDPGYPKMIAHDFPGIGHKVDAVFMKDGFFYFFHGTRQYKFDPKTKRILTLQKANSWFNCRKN
Experimental: as §1, §2
The MMP-1 proenzyme was purified from the spent media of MMP-1-transfected HT-1080 cells provided by Dr. Harold Welgus of Washington University (St. Louis, Mo.). The protein was purified on a zinc chelating column.
as §3, §4, §5, §6, §7, §8

[3] = substrate (I) 4 μM, room temperature, values not in parenthesis
[4] = substrate (II) 4 μM, 1 hr room temperature, apparent Ki, values in parenthesis

T1 sequence (P14780 107-707 limits assumed): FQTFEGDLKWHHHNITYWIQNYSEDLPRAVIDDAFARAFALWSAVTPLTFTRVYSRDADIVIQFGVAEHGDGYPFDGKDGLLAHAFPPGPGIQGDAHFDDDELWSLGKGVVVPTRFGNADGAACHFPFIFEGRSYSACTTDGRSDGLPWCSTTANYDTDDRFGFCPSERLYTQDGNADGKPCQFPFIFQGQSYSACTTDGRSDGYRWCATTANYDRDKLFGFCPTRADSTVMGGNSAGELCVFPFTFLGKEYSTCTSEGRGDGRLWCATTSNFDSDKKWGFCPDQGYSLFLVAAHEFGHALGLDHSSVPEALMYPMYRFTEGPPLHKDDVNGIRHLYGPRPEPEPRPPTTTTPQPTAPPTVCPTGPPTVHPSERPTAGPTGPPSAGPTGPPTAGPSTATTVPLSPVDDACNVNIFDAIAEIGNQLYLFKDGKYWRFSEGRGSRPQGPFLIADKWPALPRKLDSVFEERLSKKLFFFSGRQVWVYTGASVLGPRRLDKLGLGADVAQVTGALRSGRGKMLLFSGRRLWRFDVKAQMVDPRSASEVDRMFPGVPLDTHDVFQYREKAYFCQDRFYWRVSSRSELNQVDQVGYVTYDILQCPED

SMILES | IC50 (Human recombinant MMP-9 [1]; [3]) | Ki (Human recombinant MMP-9 [2]; [4]) | IC50 (Human recombinant MMP-13; [3]) | Ki (Human recombinant MMP-1; [4]) | IC50 (Human recombinant MMP-9 [1]; value outside parenthesis) | Ki (Human recombinant MMP-9 [2]; value in parenthesis) | IC50 (Human recombinant MMP-13; value outside parenthesis) | Ki (Human recombinant MMP-1; value in parenthesis) | other results
O=C(NO)C1(S(=O)(=O)c2ccc(OCCCc3nc(-c4ccc(OC(F)(F)F)cc4)no3)cc2)CCOCC1 [Example 31, tetrahydro-N-hydroxy-4-[[4-[3-[3[4-(trifluoromethoxy)phenyl]-1,2,4-oxadiazol-5-yl]propoxy]phenyl]sulfonyl]-2H-pyran-4-carboxamide] | 5650 nM | 1600 nM | 2.1 nM | > 10000 nM |  |  |  |  | 
O=C(NO)C1(S(=O)(=O)c2ccc(OCCc3cccc(-c4ccccn4)c3)cc2)CCOCC1 [Example 40] | 413 nM | 585 nM | 0.5 nM | > 10000 nM |  |  |  |  | 
CCN1CCC(C(=O)NO)(S(=O)(=O)c2ccc(OCCCc3nc(-c4ccc(OC(F)(F)F)cc4)no3)cc2)CC1 [Example 41, 1-ethyl-N-hydroxy 4-{[4-(3-{3-[4-(trifluoromethoxy)phenyl]-1,2,4-oxadiazol-5-yl}propoxy)phenyl]sulfonyl}piperidine-4-carboxamide Hydrochloride] | 1600 nM | 1470 nM | 2 nM | > 10000 nM |  |  |  |  | 
COCCN1CCC(C(=O)NO)(S(=O)(=O)c2ccc(OCCCc3nc(-c4ccc(OC(F)(F)F)cc4)no3)cc2)CC1 [Example 42] | 382 nM | 662 nM | 0.3 nM | > 10000 nM |  |  |  |  | 
CCN1CCC(C(=O)NO)(S(=O)(=O)c2ccc(OCCCc3cccc(-c4ccccc4)c3)cc2)CC1 [Example 46] | 1970 nM | 418 nM | 3.1 nM | > 10000 nM |  |  |  |  | 
O=C(NO)C1(S(=O)(=O)c2ccc(OCCCn3nnc(-c4ccc(OC(F)(F)F)cc4)n3)cc2)CCN(C2CC2)CC1 [Example 49] | 4060 nM | 1950 nM | 0.3 nM | > 10000 nM |  |  |  |  | 
O=C(NO)C1(S(=O)(=O)c2ccc(OCCCc3nc(-c4ccc(OC(F)(F)F)cc4)no3)cc2)CCN(C2CC2)CC1 [Example 51, 1-cyclopropyl-N-hydroxy-4-{[4-(3-{3-[4-(trifluoromethoxy)phenyl]-1,2,4-oxadiazol-5-yl}propoxy)phenyl]sulfonyl}piperidine-4-carboxamide Hydrochloride] | 7980 nM | 98.7 nM | 0.2 nM | 5160 nM |  |  |  |  | 
O=C(NO)C1(S(=O)(=O)c2ccc(OCCCn3nnc(-c4ccc(OC(F)(F)F)cc4)n3)cc2)CCN(CC2CC2)CC1 [Example 53] | 75.5 nM | 2900 nM | 1 nM | > 10000 nM |  |  |  |  | 
CC(C)C(=O)c1cccc(CCCOc2ccc(S(=O)(=O)C3(C(=O)NO)CCOCC3)cc2)c1 [Example 95] |  |  |  |  | 1200 nM | 788 nM | 2.7 nM | > 10000 nM | 
O=C(NO)C1(S(=O)(=O)c2ccc(OCCCc3cccc(Cc4ccccc4)c3)cc2)CCOCC1 [Example 98] |  |  |  |  | 2420 nM | 1450 nM | 1.8 nM | > 10000 nM | 
O=C(NO)C1(S(=O)(=O)c2ccc(OCCc3cccc(-c4ccncc4)c3)cc2)CCOCC1 [Example 113] |  |  |  |  | 1980 nM | 161 nM | 0.2 nM | > 10000 nM | 
O=C(NO)C1(S(=O)(=O)c2ccc(OCCc3cccc(-c4ccccc4F)c3)cc2)CCOCC1 [Example 115] |  |  |  |  | > 10000 nM | 1980 nM | 0.9 nM | > 10000 nM | 
O=C(NO)C1(S(=O)(=O)c2ccc(OCCc3cccc(-c4ccc(F)cc4)c3)cc2)CCOCC1 [Example 123] |  |  |  |  | > 10000 nM | 2130 nM | 1.4 nM | > 10000 nM | 
O=C(NO)C1(S(=O)(=O)c2ccc(OCCc3cccc(-c4cccnc4)c3)cc2)CCOCC1 [Example 125] |  |  |  |  | 963 nM | 146 nM | 0.2 nM | 3580 nM | 
Cc1ccc(-c2cccc(CCOc3ccc(S(=O)(=O)C4(C(=O)NO)CCOCC4)cc3)c2)cc1 [Example 127] |  |  |  |  | > 10000 nM | 4230 nM | 5.5 nM | > 10000 nM | 
O=C(NO)C1(S(=O)(=O)c2ccc(OCCCc3cccc(-c4cc5ccccc5s4)c3)cc2)CCOCC1 [Example 633] |  |  |  |  |  |  |  |  | Ki (Human recombinant MMP-9 [2]; value in parentheses): 6780 nM; IC50 (Human recombinant MMP-13; value outside parentheses): 117 nM; Ki (Human recombinant MMP-1; value in parentheses): > 10000 nM
O=C(NO)C1(S(=O)(=O)c2ccc(OCCCc3cccc(-c4coc5ccccc45)c3)cc2)CCOCC1 [Example 634] |  |  |  |  |  |  |  |  | Ki (Human recombinant MMP-9 [2]; value in parentheses): 1300 nM; IC50 (Human recombinant MMP-13; value outside parentheses): 16.3 nM; Ki (Human recombinant MMP-1; value in parentheses): > 10000 nM
C=Cc1ccc(-c2cccc(CCCOc3ccc(S(=O)(=O)C4(C(=O)NO)CCOCC4)cc3)c2)cc1 [Example 635] |  |  |  |  |  |  |  |  | Ki (Human recombinant MMP-9 [2]; value in parentheses): 4830 nM; IC50 (Human recombinant MMP-13; value outside parentheses): 20 nM; Ki (Human recombinant MMP-1; value in parentheses): > 10000 nM
O=C(NO)C1(S(=O)(=O)c2ccc(OCCCc3cccc(-c4ccccc4O)c3)cc2)CCOCC1 [Example 636] |  |  |  |  |  |  |  |  | Ki (Human recombinant MMP-9 [2]; value in parentheses): 763 nM; IC50 (Human recombinant MMP-13; value outside parentheses): 3.2 nM; Ki (Human recombinant MMP-1; value in parentheses): > 10000 nM
O=C(NO)C1(S(=O)(=O)c2ccc(OCCCc3cccc(-c4cccc5ccccc45)c3)cc2)CCOCC1 [Example 638] |  |  |  |  |  |  |  |  | Ki (Human recombinant MMP-9 [2]; value in parentheses): 8770 nM; IC50 (Human recombinant MMP-13; value outside parentheses): 400 nM; Ki (Human recombinant MMP-1; value in parentheses): > 10000 nM
Cc1ccc(-c2cccc(CCCOc3ccc(S(=O)(=O)C4(C(=O)NO)CCOCC4)cc3)c2)s1 [Example 639] |  |  |  |  |  |  |  |  | Ki (Human recombinant MMP-9 [2]; value in parentheses): 688 nM; IC50 (Human recombinant MMP-13; value outside parentheses): 4.3 nM; Ki (Human recombinant MMP-1; value in parentheses): > 10000 nM
